Measurements taken from ChEMBL document CHEMBL1909046, “DrugMatrix in vitro pharmacology data”.

Experiments:
[1] = target: T1, Type-2 angiotensin II receptor (Homo sapiens, UniProt P50052); assay type: cell-based; conditions: cho-k1; note: in other assays of this panel Not Active means under 50% inhibition at 10 µM
T1 sequence (P50052 whole entry): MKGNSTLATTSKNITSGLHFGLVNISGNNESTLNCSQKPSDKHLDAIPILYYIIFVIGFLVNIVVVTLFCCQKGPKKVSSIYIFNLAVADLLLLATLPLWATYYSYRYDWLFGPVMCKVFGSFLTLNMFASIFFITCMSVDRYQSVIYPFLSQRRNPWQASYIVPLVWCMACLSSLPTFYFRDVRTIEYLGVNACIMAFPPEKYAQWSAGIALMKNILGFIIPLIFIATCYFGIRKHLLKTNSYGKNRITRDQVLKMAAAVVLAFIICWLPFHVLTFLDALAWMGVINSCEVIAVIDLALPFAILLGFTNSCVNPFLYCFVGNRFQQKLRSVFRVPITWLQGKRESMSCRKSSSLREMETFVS

[2] = DRUGMATRIX: beta-Lactamase enzyme inhibition (substrate: Nitrocefin); set-up: species or system Bacillus cereus; conditions: Not Active = under 50% inhibition at 10 µM
Calcitonin receptor = target: T2, Calcitonin receptor (Homo sapiens, UniProt P30988); assay type: cell membranes, Membrane; conditions: t47d; note: in other assays of this panel Not Active means under 50% inhibition at 10 µM
T2 sequence (P30988 whole entry): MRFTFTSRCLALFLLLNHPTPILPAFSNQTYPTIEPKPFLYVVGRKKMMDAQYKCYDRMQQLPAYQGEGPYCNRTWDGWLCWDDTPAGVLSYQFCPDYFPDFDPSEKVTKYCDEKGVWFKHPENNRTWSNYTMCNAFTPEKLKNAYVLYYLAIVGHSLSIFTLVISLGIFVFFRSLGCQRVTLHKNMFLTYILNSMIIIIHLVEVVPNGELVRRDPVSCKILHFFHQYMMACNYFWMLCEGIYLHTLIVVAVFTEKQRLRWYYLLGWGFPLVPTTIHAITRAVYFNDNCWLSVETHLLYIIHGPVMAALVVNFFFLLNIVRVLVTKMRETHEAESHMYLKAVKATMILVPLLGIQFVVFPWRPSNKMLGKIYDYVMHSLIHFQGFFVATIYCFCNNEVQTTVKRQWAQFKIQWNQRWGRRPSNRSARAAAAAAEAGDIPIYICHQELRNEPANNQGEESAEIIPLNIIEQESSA

[3] = target: Vascular endothelial growth factor receptor 1 (Homo sapiens, UniProt P17948); assay type: cell-based; conditions: huvec; note: in other assays of this panel Not Active means under 50% inhibition at 10 µM
[4] = target: C-C chemokine receptor type 2 (Homo sapiens, UniProt P41597); assay type: cell membranes, CHO-K1, Membrane; conditions: cho-k1; note: in other assays of this panel Not Active means under 50% inhibition at 10 µM
D(4) dopamine receptor = target: T3, D(4) dopamine receptor (Homo sapiens, UniProt P21917); test: DRUGMATRIX: Dopamine D4.2 radioligand binding (ligand: [3H] Spiperone); assay type: cell membranes, CHO-K1, Membrane; conditions: cho-k1; Not Active = under 50% inhibition at 10 µM
T3 sequence (P21917 whole entry): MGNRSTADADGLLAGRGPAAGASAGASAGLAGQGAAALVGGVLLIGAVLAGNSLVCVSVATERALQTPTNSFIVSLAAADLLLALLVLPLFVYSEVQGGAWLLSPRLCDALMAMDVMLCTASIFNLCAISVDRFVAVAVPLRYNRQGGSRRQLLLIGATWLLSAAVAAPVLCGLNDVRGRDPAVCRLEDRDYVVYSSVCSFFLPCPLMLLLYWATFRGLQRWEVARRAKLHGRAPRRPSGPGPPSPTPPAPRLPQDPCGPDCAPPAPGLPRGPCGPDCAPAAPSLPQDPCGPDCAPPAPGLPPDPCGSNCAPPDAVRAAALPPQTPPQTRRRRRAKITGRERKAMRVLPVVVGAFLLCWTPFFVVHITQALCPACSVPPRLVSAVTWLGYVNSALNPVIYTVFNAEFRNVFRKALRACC

[5] = target: Sodium-dependent dopamine transporter (Homo sapiens, UniProt Q01959); test: DRUGMATRIX: Dopamine Transporter radioligand binding (ligand: [125I] RTI-55); assay type: cell membranes, CHO-K1, Membrane; conditions: cho-k1; Not Active = under 50% inhibition at 10 µM
[6] = DRUGMATRIX: GABAA, Muscimol, Central radioligand binding (ligand: [3H] Muscimol); assay type: cell membranes, Rattus norvegicus, Wistar, Brain, Membrane; conditions: Not Active = under 50% inhibition at 10 µM
[7] = DRUGMATRIX: Glutamate, AMPA radioligand binding (ligand: [3H] AMPA); assay type: cell membranes, Rattus norvegicus, Wistar, Cerebral cortex, Membrane; conditions: Not Active = under 50% inhibition at 10 µM
Cytochrome P450 2E1 = Cytochrome P450 2E1 (Homo sapiens, UniProt P05181); conditions: bti-tn-5b1-4; note: in other assays of this panel Not Active means under 50% inhibition at 10 µM
Cytochrome P450 2E1, sequence (P05181 whole entry): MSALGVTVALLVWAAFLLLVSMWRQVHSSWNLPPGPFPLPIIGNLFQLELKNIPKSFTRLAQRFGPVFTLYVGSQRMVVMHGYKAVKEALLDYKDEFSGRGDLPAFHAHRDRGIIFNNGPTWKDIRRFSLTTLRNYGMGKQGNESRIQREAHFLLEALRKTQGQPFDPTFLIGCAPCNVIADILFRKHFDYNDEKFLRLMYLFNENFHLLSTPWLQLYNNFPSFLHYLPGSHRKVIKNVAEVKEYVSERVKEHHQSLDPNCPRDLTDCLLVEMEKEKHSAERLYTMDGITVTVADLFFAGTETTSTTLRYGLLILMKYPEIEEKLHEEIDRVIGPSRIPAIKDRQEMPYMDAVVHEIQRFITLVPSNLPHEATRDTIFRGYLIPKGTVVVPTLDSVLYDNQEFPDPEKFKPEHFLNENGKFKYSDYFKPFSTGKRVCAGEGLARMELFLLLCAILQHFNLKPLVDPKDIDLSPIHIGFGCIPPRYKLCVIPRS

Sodium-dependent dopamine transporter, sequence (Q01959 whole entry): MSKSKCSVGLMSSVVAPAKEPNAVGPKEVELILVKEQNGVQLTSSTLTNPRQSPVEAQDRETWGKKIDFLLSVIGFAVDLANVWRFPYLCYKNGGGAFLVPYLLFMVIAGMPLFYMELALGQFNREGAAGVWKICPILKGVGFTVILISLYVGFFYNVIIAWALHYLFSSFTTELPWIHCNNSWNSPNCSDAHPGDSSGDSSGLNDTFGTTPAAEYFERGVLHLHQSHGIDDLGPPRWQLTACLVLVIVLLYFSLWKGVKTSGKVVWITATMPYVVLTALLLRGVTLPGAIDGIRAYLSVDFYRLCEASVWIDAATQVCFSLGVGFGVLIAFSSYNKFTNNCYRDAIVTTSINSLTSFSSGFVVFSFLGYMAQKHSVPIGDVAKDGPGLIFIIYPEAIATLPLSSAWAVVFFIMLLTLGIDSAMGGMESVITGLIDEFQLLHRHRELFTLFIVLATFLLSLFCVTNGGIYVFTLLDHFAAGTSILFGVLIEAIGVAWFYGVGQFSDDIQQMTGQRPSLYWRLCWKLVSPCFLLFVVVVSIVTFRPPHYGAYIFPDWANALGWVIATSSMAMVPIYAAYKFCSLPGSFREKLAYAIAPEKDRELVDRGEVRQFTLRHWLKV
C-C chemokine receptor type 2, sequence (P41597 whole entry): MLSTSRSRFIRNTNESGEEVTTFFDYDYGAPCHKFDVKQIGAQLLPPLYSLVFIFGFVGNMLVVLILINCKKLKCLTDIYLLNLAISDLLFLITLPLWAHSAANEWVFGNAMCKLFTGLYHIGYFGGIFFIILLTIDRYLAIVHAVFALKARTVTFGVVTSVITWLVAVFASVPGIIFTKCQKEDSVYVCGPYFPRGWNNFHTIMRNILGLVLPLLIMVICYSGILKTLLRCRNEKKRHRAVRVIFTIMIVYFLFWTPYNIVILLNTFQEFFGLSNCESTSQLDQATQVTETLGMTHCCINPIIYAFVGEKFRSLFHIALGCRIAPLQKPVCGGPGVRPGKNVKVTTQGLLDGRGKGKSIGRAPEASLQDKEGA
Vascular endothelial growth factor receptor 1, sequence (P17948 whole entry): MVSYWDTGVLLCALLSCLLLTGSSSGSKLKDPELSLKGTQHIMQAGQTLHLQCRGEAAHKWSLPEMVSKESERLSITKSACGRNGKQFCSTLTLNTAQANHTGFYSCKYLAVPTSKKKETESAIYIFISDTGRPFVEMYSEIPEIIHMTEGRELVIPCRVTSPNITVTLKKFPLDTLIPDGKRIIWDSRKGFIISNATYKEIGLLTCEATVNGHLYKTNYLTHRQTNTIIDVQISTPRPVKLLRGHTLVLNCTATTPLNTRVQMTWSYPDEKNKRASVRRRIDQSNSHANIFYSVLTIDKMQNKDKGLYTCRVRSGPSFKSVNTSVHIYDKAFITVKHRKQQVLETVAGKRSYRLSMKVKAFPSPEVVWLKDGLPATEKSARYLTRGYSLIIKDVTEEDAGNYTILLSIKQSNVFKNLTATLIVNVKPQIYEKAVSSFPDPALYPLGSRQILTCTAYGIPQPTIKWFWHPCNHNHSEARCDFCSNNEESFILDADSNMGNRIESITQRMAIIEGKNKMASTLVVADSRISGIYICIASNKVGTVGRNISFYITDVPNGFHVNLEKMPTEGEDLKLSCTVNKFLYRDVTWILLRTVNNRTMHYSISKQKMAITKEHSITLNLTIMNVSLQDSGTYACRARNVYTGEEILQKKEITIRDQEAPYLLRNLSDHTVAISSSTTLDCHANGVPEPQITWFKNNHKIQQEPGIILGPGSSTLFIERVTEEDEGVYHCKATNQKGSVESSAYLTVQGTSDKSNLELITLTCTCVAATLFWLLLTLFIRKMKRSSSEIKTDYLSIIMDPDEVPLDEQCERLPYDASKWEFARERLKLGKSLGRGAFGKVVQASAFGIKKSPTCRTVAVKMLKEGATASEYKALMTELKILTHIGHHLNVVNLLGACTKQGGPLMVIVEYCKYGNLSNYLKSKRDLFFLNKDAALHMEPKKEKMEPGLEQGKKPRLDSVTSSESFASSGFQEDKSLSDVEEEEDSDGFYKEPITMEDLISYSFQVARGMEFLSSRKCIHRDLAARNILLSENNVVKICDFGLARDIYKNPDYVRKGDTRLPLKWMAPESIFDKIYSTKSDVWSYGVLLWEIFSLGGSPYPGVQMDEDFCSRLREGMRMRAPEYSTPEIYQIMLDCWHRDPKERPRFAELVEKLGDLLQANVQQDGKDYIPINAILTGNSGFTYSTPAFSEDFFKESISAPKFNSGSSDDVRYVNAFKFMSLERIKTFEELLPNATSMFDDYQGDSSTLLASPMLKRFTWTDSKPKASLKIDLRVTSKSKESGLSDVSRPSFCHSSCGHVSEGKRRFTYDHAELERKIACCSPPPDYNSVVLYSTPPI

CC(C)(Oc1ccc(CCNC(=O)c2ccc(Cl)cc2)cc1)C(=O)O [BEZAFIBRATE]
Not Active: IC50 [1] | IC50 [2] | Ki [2] | IC50 (Calcitonin receptor) | IC50 [3] | IC50 [4] | IC50 (D(4) dopamine receptor) | IC50 [5] | IC50 [6] | Ki [6] | IC50 [7] | Ki [7] | IC50 (Cytochrome P450 2E1) | Ki (Cytochrome P450 2E1)

CCCC[C@@H](CC)COC(=O)c1ccccc1C(=O)OC[C@@H](CC)CCCC [BIS(2-ETHYLHEXYL)PHTHALATE]
Not Active: IC50 [1] | IC50 [2] | Ki [2] | IC50 (Calcitonin receptor) | IC50 [3] | IC50 [4] | IC50 (D(4) dopamine receptor) | IC50 [5] | IC50 [6] | Ki [6] | IC50 [7] | Ki [7] | IC50 (Cytochrome P450 2E1) | Ki (Cytochrome P450 2E1)

Brc1ccccc1 [BROMOBENZENE]
Not Active: IC50 [1] | IC50 [2] | Ki [2] | IC50 (Calcitonin receptor) | IC50 [3] | IC50 [4] | IC50 (D(4) dopamine receptor) | IC50 [5] | IC50 [6] | Ki [6] | IC50 [7] | Ki [7] | IC50 (Cytochrome P450 2E1) | Ki (Cytochrome P450 2E1)

CCCCOC(=O)c1ccc(N)cc1 [BUTAMBEN]
Not Active: IC50 [1] | IC50 [2] | Ki [2] | IC50 (Calcitonin receptor) | IC50 [3] | IC50 [4] | IC50 (D(4) dopamine receptor) | IC50 [5] | IC50 [6] | Ki [6] | IC50 [7] | Ki [7] | IC50 (Cytochrome P450 2E1) | Ki (Cytochrome P450 2E1)

CC[C@@]1(O)C(=O)OCc2c1cc1n(c2=O)Cc2cc3ccccc3nc2-1 [CAMPTOTHECIN]
Not Active: IC50 [1] | IC50 [2] | Ki [2] | IC50 (Calcitonin receptor) | IC50 [3] | IC50 [4] | IC50 (D(4) dopamine receptor) | IC50 [5] | IC50 [6] | Ki [6] | IC50 [7] | Ki [7] | IC50 (Cytochrome P450 2E1) | Ki (Cytochrome P450 2E1)

COCc1c(C(C)C)nc(C(C)C)c(/C=C/[C@@H](O)C[C@@H](O)CC(=O)O)c1-c1ccc(F)cc1 [CERIVASTATIN]
Not Active: IC50 [1] | IC50 [2] | Ki [2] | IC50 (Calcitonin receptor) | IC50 [3] | IC50 [4] | IC50 (D(4) dopamine receptor) | IC50 [5] | IC50 [6] | Ki [6] | IC50 [7] | Ki [7] | IC50 (Cytochrome P450 2E1) | Ki (Cytochrome P450 2E1)

CC(=O)O[C@]1(C(C)=O)CC[C@H]2[C@@H]3C=C(Cl)C4=CC(=O)CC[C@]4(C)[C@H]3CC[C@@]21C [CHLORMADINONE ACETATE]
Not Active: IC50 [1] | IC50 [2] | Ki [2] | IC50 (Calcitonin receptor) | IC50 [3] | IC50 [4] | IC50 (D(4) dopamine receptor) | IC50 [5] | IC50 [6] | Ki [6] | IC50 [7] | Ki [7] | IC50 (Cytochrome P450 2E1) | Ki (Cytochrome P450 2E1)

O=C1CCc2cc(OCCCCc3nnnn3C3CCCCC3)ccc2N1 [CILOSTAZOL]
Not Active: IC50 [1] | IC50 [2] | Ki [2] | IC50 (Calcitonin receptor) | IC50 [3] | IC50 [4] | IC50 (D(4) dopamine receptor) | IC50 [5] | IC50 [6] | Ki [6] | IC50 [7] | Ki [7] | IC50 (Cytochrome P450 2E1) | Ki (Cytochrome P450 2E1)

O=C(O)c1cn(C2CC2)c2cc(N3CCNCC3)c(F)cc2c1=O [CIPROFLOXACIN]
Not Active: IC50 [1] | IC50 [2] | Ki [2] | IC50 (Calcitonin receptor) | IC50 [3] | IC50 [4] | IC50 (D(4) dopamine receptor) | IC50 [5] | IC50 [6] | Ki [6] | IC50 [7] | Ki [7] | IC50 (Cytochrome P450 2E1) | Ki (Cytochrome P450 2E1)

CN(C)CCCC1(c2ccc(F)cc2)OCc2cc(C#N)ccc21 (configuration not stated) [CITALOPRAM]
Not Active: IC50 [1] | IC50 [2] | Ki [2] | IC50 (Calcitonin receptor) | IC50 [3] | IC50 [4] | IC50 (D(4) dopamine receptor) | IC50 [5] | IC50 [6] | Ki [6] | IC50 [7] | Ki [7] | IC50 (Cytochrome P450 2E1) | Ki (Cytochrome P450 2E1)

COC(=O)[C@H](c1ccccc1Cl)N1CCc2sccc2C1 [CLOPIDOGREL]
Not Active: IC50 [1] | IC50 [2] | Ki [2] | IC50 (Calcitonin receptor) | IC50 [3] | IC50 [4] | IC50 (D(4) dopamine receptor) | IC50 [5] | IC50 [6] | Ki [6] | IC50 [7] | Ki [7] | IC50 (Cytochrome P450 2E1) | Ki (Cytochrome P450 2E1)

C[C@]12CCC(=O)C=C1CC[C@@H]1[C@@H]2C(=O)C[C@@]2(C)[C@H]1CC[C@]2(O)C(=O)CO [CORTISONE]
Not Active: IC50 [1] | IC50 [2] | Ki [2] | IC50 (Calcitonin receptor) | IC50 [3] | IC50 [4] | IC50 (D(4) dopamine receptor) | IC50 [5] | IC50 [6] | Ki [6] | IC50 [7] | Ki [7] | IC50 (Cytochrome P450 2E1) | Ki (Cytochrome P450 2E1)

Cc1ccccc1N1CCN(CCc2nnc3n2CCCC3)CC1 [DAPIPRAZOLE]
Not Active: IC50 [1] | IC50 [2] | Ki [2] | IC50 (Calcitonin receptor) | IC50 [3] | IC50 [4] | IC50 (D(4) dopamine receptor) | IC50 [5] | IC50 [6] | Ki [6] | IC50 [7] | Ki [7] | IC50 (Cytochrome P450 2E1) | Ki (Cytochrome P450 2E1)
